Test results reported in US20130096067A1, “DROSOPHILA TUMOR STEM CELL MODEL AND USES THEREOF” (priority 2011, published 2013).
Read-outs that look alike come from different tables or passages of the source.

Test system: Raf-1^gof intestinal tumors
[1] = screen of 480 ICCB compounds in vials, compounds fed to flies with one-day old Raf-1^gof tumors, assessed three days later, esg-Gal4 luciferase
[2] = screen of 480 ICCB compounds in vials, compounds fed to flies with one-day old Raf-1^gof tumors, assessed three days later, esg-Gal4 luciferase, averaged from multiple wells
[3] = ICCB compounds fed in vials to flies with one-day old Raf-1^gof tumors, assessed three days later
[4] = ICCB compounds fed in vials to flies with one-day old Raf-1^gof tumors, assessed three days later, averaged from multiple wells
Throughout, for Fold (luciferase activity relative to DMSO controls): test concentration or dose not given here.
Throughout, for Fold (luciferase activity, fold difference relative to DMSO controls): test concentration or dose not given here.
Throughout, for Log2 (fold) (luciferase activity, log2 of the fold difference relative to DMSO controls): test concentration or dose not given here.
Throughout, for Log2 (fold) of luciferase activity relative to DMSO controls: test concentration or dose not given here.

Compound	Log2 (fold) (luciferase activity, log2 of the fold difference relative to DMSO controls) [1]	Fold (luciferase activity, fold difference relative to DMSO controls) [2]	Log2 (fold) of luciferase activity relative to DMSO controls [3]	Fold (luciferase activity relative to DMSO controls) [4] [fold]	further results
c1ccc(CN(CCN(Cc2ccccn2)Cc2ccccn2)Cc2ccccn2)nc1 [TPEN]	−0.717	0.608			
C=C1[C@@H](O)[C@@H]2O[C@]3(CC[C@H](/C=C/[C@@H](C)[C@@H]4CC(C)=C[C@@]5(O[C@H](C[C@@](C)(O)C(=O)O)CC[C@H]5O)O4)O3)CC[C@H]2O[C@@H]1[C@@H](O)C[C@H](C)[C@H]1O[C@@]2(CCCCO2)CC[C@H]1C [okadaic acid, reference compound]	−1.713	0.305			Fold (Table 3 summary of hits, Screen ICCB, luciferase relative to DMSO, fed three consecutive days in vials): 0.305 fold
C=C1CCC(O)C/C1=C\C=C1\CCCC2(C)C1CCC2C(C)CCC(O)C(C)(C)O (stereo not shown) [24,25-DIHYDROXYVITAMIN D3]	−0.363	0.777			
CC(O)(C(=O)Nc1ccc(S(=O)(=O)c2ccccc2)cc1)C(F)(F)F (stereo not shown) [ZM226600]			−0.117	0.922	
CN1C(C(=O)Nc2ccccn2)=C(O)c2ccccc2S1(=O)=O [piroxicam]			0.147	1.107	
CC[C@@H]1/C=C(\C)C[C@H](C)C[C@H](OC)[C@H]2O[C@@](O)(C(=O)C(=O)N3CCCC[C@H]3C(=O)O[C@H](/C(C)=C/[C@@H]3CC[C@@H](O)[C@H](OC)C3)[C@H](C)[C@@H](O)CC1=O)[C@H](C)C[C@@H]2OC [ascomycin (FK-520)]			−0.035	0.976	
CCCCCC(=O)/C=C/C=C\C/C=C\C/C=C\CCCC(=O)O [15-KETOEICOSATETRAENOIC ACID]	−0.266	0.832			
COc1ccc(Cl)cc1C(=O)NCCc1ccc(S(=O)(=O)NC(=O)NC2CCCCC2)cc1 [GLYBURIDE]	−0.217	0.861			
CCCCC/C=C\C=C\[C@@H](O)CCCCCCCC(=O)O [9(S)-HODE]	−0.398	0.759			
COC1=CC(=O)O[C@@H](/C=C/c2ccccc2)C1 (racemic) [Kavain (+/−)]	−0.357	0.781			
CC1(C2CCCC2)Cc2cc(OCC(=O)O)c(Cl)c(Cl)c2C1=O (stereo not shown) [IAA-94]			0.061	1.043	
COC(C)(C)CCCC(C)C/C=C/C(C)=C/C(=O)O (stereo not shown) [METHOPRENE ACID]	−0.328	0.796			
Oc1cc2c(cc1O)CN(C(=S)NCCc1ccc(Cl)cc1)CCC2 [capsazepine]			−0.030	0.979	
O=C(Nc1ccccc1)c1cc([N+](=O)[O-])ccc1Cl [GW-9662]	−0.581	0.669			
O=S(=O)(c1cccc2c(I)cccc12)N1CCCNCC1 [ML7]			0.192	1.143	
CC(=O)C1=C(O)[C@@H]2[C@H]3c4c[nH]c5cccc(c45)C[C@H]3C(C)(C)N2C1=O [CYCLOPIAZONIC ACID]			0.072	1.051	
O=c1c(O)c(-c2ccc(O)c(O)c2)oc2cc(O)cc(O)c12 [quercetin]					Fold (luciferase activity, fold difference relative to DMSO controls) (in vivo): 0.737; Log2 (fold) (luciferase activity, log2 of the fold difference relative to DMSO controls) (in vivo): −0.440
Cc1ccc2c(c1)C(=O)C1(O)CCN(c3ccccc3)C1=N2 (stereo not shown) [Blebbistatin]			0.196	1.146	
CCCCC/C=C\CC1OC1CCCCCCCC(=O)O (stereo not shown) [LEUKOTOXIN A (9,10-EODE)]	−0.216	0.861			
Cc1[nH]c(=O)c(C#N)cc1-c1ccncc1 [Milrinone]	−0.615	0.653			
Cc1cnc(C(=O)NCCc2ccc(S(=O)(=O)NC(=O)NC3CCCCC3)cc2)cn1 [GLIPIZIDE]	−0.417	0.749			
mastoparan	−0.301	0.812			
C/C=C/C/C=C/CCC(=O)[C@H]1O[C@H]1C(N)=O [Cerulenin]	−0.474	0.720			

Compound	Log2 (fold) (luciferase activity, log2 of the fold difference relative to DMSO controls) [1]	Fold (luciferase activity, fold difference relative to DMSO controls) [2]	Log2 (fold) of luciferase activity relative to DMSO controls [3]	Fold (luciferase activity relative to DMSO controls) [4] [fold]	further results
CCCCC/C=C\C/C=C\CCCCCCCC(=O)NCC(=O)O [N-LINOLEOYLGLYCINE]	−0.285	0.821			
CS(=O)(=O)Nc1ccc([N+](=O)[O-])cc1Oc1ccccc1 [Nimesulide]	−0.264	0.833			
CCCC(=O)Nc1ncnc2c1ncn2[C@@H]1O[C@@H]2COP(=O)(O)O[C@H]2[C@H]1OC(=O)CCC [dibutyrylcyclic AMP]	−0.701	0.615			
CC/C=C\C/C=C\C/C=C\CCCCCCCC(=O)O [LINOLENIC ACID (18:3 n-3)]			0.096	1.069	
CCCCC[C@H](O)/C=C/[C@@H]1[C@@H](C/C=C\CCCC(=O)O)[C@@H](O)C[C@H]1O [PROSTAGLANDIN F2a]	−0.450	0.732			
CC[C@H](CO)Nc1nc(NCc2ccccc2)c2ncn(C(C)C)c2n1 [roscovitine]					Fold (luciferase activity, fold difference relative to DMSO controls) (in vivo): 0.659; Log2 (fold) (luciferase activity, log2 of the fold difference relative to DMSO controls) (in vivo): −0.602
COc1c(C)c2c(c(O)c1C/C=C(\C)CCC(=O)O)C(=O)OC2 [Mycophenolic acid]	−0.577	0.670			
CC[N+](CC)(CC)CC(=O)Nc1c(C)cccc1C [QX-314]			0.146	1.107	
CN(C)C(=O)C(CCN1CCC(O)(c2ccc(Cl)cc2)CC1)(c1ccccc1)c1ccccc1 [LOPERAMIDE]					Fold (luciferase activity, fold difference relative to DMSO controls) (in vivo): 0.786; Log2 (fold) (luciferase activity, log2 of the fold difference relative to DMSO controls) (in vivo): −0.347
CCCCC/C=C\C[C@@H](O)/C=C/C=C\C/C=C\CCCC(=O)O [12(R)-HETE]	−0.219	0.859			
CCCCCCCCCCCCC(O)C(=O)O (stereo not shown) [2-HYDROXYMYRISTIC ACID]			0.087	1.062	
Cc1cccc(Nc2cc(Cl)nc(SCC(=O)O)n2)c1C [WY-14643]			0.020	1.014	
C=CC[C@@H]1/C=C(\C)C[C@H](C)C[C@H](OC)[C@H]2O[C@@](O)(C(=O)C(=O)N3CCCC[C@H]3C(=O)O[C@H](/C(C)=C/[C@@H]3CC[C@@H](O)[C@H](OC)C3)[C@H](C)[C@@H](O)CC1=O)[C@H](C)C[C@@H]2OC [FK-506]	−0.699	0.616			
CCCCCCCC/C=C\CCCCCCCC(N)=O [9,10-OCTADECENOAMIDE]	−0.454	0.730			
C=C1C(=O)O[C@@H]2C[C@@H](C)[C@@H]3C=CC(=O)[C@@]3(C)[C@@H](O)[C@H]12 [Helenalin]					Fold (luciferase activity relative to DMSO controls) (in vivo): 1.112 fold; Log2 (fold) of luciferase activity relative to DMSO controls (in vivo): 0.154
CC1=C(/C=C/C(C)=C/C=C/C(C)=C/C(=O)O)C(C)(C)CCC1 [RETINOIC ACID, ALL TRANS]			−0.162	0.894	
Clc1ccc(C2CC3CCC2N3)cn1 (racemic) [epibatidine (+/−)]	−0.457	0.729			
CCCCC[C@H](O)/C=C/[C@H]1C(=O)C[C@H](O)[C@@H]1C/C=C\CCCC(=O)O [PROSTAGLANDIN D2]	−0.413	0.751			
CC1(C)CCC2=C(O1)c1ccccc1C(=O)C2=O [beta-lapachone]			0.070	1.050	
O=C1NCN(c2ccccc2)C12CCN(CCCC(c1ccc(F)cc1)c1ccc(F)cc1)CC2 [FLUSPIRILINE]			−0.192	0.875	
Cn1c2ccccc2c2c3c(c4c5ccccc5n(CCC#N)c4c21)CNC3=O [Go6976]	−0.287	0.819			
CCCC(=O)Nc1nc2c(ncn2C2O[C@H]3COP(=O)(O)O[C@@H]3[C@@H]2OC(=O)CCC)c(=O)[nH]1 (stereo partly shown) [dibutyrylcyclic GMP]	−0.342	0.789			
